From ChEMBL document CHEMBL1201862, “PubChem BioAssay data set” (2004)
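96-well plates; 48 h exposure; 5 concentrations. Endpoints by linear interpolation between flanking doses. Not reached: highest tested concentration assigned. GI50 marks 50% less growth.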 The source made the active and inactive calls. Cut-off read from the data, not from the text of the source: active = GI50 up to about 1.1 µM and inactive = higher. Residues, ends and D or L forms follow the SMILES beside them. *: point of attachment. Cbz = O=C(OCc1ccccc1)*

Experiments:
Test in all cases: NCI tumour cell line growth inhibition, 48 h
KM12 = tested on: KM12
OVCAR-8 = tested on: OVCAR-8
HCC 2998 = tested on: HCC 2998
CAKI-1 = tested on: CAKI-1
RPMI-8226 = tested on: RPMI-8226
A498 = tested on: A498
IGROV-1 = tested on: IGROV-1
RXF 393 = tested on: RXF 393
HOP-92 = tested on: HOP-92
TK-10 = tested on: TK-10
NCI-H23 = tested on: NCI-H23
SK-MEL-2 = tested on: SK-MEL-2
HT-29 = tested on: HT-29
ACHN = tested on: ACHN
786-0 = tested on: 786-0
HCT-116 = tested on: HCT-116
CCRF-CEM = tested on: CCRF-CEM
M14 = tested on: M14
SNB-19 = tested on: SNB-19
SF-268 = tested on: SF-268

Row | Compound | GI50 (KM12) | GI50 (OVCAR-8) | GI50 (HCC 2998) | GI50 (CAKI-1) | GI50 (RPMI-8226) | GI50 (A498) | GI50 (IGROV-1) | GI50 (RXF 393) | GI50 (HOP-92) | GI50 (TK-10) | GI50 (NCI-H23) | GI50 (SK-MEL-2) | GI50 (HT-29) | GI50 (ACHN) | GI50 (786-0) | GI50 (HCT-116) | GI50 (CCRF-CEM) | GI50 (M14) | GI50 (SNB-19) | GI50 (SF-268)
1 | O=C1c2c(nc3ccccc3c2-c2ccccc2)CN1Nc1ccccn1 | 76 µM (inactive) | 43.5 µM (inactive) | > 100 µM (inactive) | 47.3 µM (inactive) | 76.9 µM (inactive) | 5.32 µM (inactive) | 81.8 µM (inactive) | 53 µM (inactive) | 38.4 µM (inactive) | > 83 µM (inactive) | 86.5 µM (inactive) | > 100 µM (inactive) | > 100 µM (inactive) | 43.7 µM (inactive) | > 74.5 µM (inactive) | 79.8 µM (inactive) | 79.1 µM (inactive) | > 100 µM (inactive) | > 86.5 µM (inactive) | 75.9 µM (inactive)
2 | N#CC1=C(N)OC2=C(CCCc3ccc([N+](=O)[O-])cc32)C1c1ccccc1 (stereo unspecified) | 3.15 µM (inactive) | 7.48 µM (inactive) | 2.18 µM (inactive) | 9.25 µM (inactive) | 2.9 µM (inactive) | 2.76 µM (inactive) | 4.19 µM (inactive) | 4.18 µM (inactive) | 6.46 µM (inactive) | 12.4 µM (inactive) | 4.97 µM (inactive) | 4.58 µM (inactive) | 3.44 µM (inactive) | 10.8 µM (inactive) | 9.98 µM (inactive) | 4.23 µM (inactive) |  | 3.13 µM (inactive) | 5.86 µM (inactive) | 5.41 µM (inactive)
3 | Nc1ccc(O)c2c1C(=O)c1c(N)ccc(O)c1C2=O | > 100 µM (inactive) | > 100 µM (inactive) | > 100 µM (inactive) | > 100 µM (inactive) | > 100 µM (inactive) | > 100 µM (inactive) | > 100 µM (inactive) | > 100 µM (inactive) | > 100 µM (inactive) | > 100 µM (inactive) | > 100 µM (inactive) | > 100 µM (inactive) |  | > 100 µM (inactive) | > 100 µM (inactive) | > 100 µM (inactive) | > 100 µM (inactive) | > 100 µM (inactive) | > 100 µM (inactive) | > 100 µM (inactive)
4 | CCOC(=O)CCC(NC(=O)OCc1ccccc1)C(=O)NC(CCC(=O)OCC)C(=O)OCC (stereo unspecified) (Cbz-Glu(OEt)-Glu(OEt)-OEt; configuration not given here) | > 100 µM (inactive) | > 100 µM (inactive) | > 100 µM (inactive) | > 100 µM (inactive) | > 100 µM (inactive) | > 100 µM (inactive) | > 100 µM (inactive) | > 100 µM (inactive) | > 100 µM (inactive) |  | > 100 µM (inactive) | > 100 µM (inactive) | > 100 µM (inactive) | > 100 µM (inactive) | > 100 µM (inactive) | > 100 µM (inactive) | > 100 µM (inactive) | > 100 µM (inactive) | > 100 µM (inactive) | > 100 µM (inactive)
5 | Nc1ccc2c(c1)C(=O)N(OS(=O)(=O)c1ccccc1)C2=O | > 100 µM (inactive) | 56.9 µM (inactive) | > 100 µM (inactive) | > 100 µM (inactive) |  | > 100 µM (inactive) | > 100 µM (inactive) | > 100 µM (inactive) | > 100 µM (inactive) | > 100 µM (inactive) | > 100 µM (inactive) | > 100 µM (inactive) | > 100 µM (inactive) | > 100 µM (inactive) | > 100 µM (inactive) | > 100 µM (inactive) | 76.6 µM (inactive) | > 100 µM (inactive) | > 100 µM (inactive) | > 100 µM (inactive)
6 | CC(=O)Nc1cc2c(cc1O)CC[C@@H]1[C@@H]2CC[C@]2(C)[C@@H](O)CC[C@@H]12 | 15 µM (inactive) | 44.3 µM (inactive) | 37.2 µM (inactive) | 84.1 µM (inactive) | 45.3 µM (inactive) | 24.1 µM (inactive) | 82.4 µM (inactive) | 43.3 µM (inactive) | 41 µM (inactive) | 49.7 µM (inactive) | 47.3 µM (inactive) |  | 30.4 µM (inactive) | 41.6 µM (inactive) | 63 µM (inactive) |  | 23.9 µM (inactive) | 39.4 µM (inactive) | > 100 µM (inactive) | 13.1 µM (inactive)
7 | CC(=O)OC[C@@]12C[C@H]3C(=O)C(C)(C)C[C@H]3[C@]1(C)[C@@H](OC(C)=O)[C@]1(O)[C@H]([C@@H](OC(=O)c3ccccc3)[C@@H](C)[C@H]1OC(C)=O)[C@H]2OC(C)=O | > 20 µM (inactive) | > 20 µM (inactive) | > 20 µM (inactive) | > 20 µM (inactive) |  | > 20 µM (inactive) | > 20 µM (inactive) | > 20 µM (inactive) | > 20 µM (inactive) | > 20 µM (inactive) | > 20 µM (inactive) | > 20 µM (inactive) |  | > 20 µM (inactive) | > 20 µM (inactive) | > 20 µM (inactive) | 6.21 µM (inactive) | > 20 µM (inactive) | > 20 µM (inactive) | > 20 µM (inactive)
8 | COC(=O)C(Cc1ccccc1I)C1=CCC2(CC1)OCCO2 (stereo unspecified) | 22.9 µM (inactive) | 35.2 µM (inactive) | 31.6 µM (inactive) | 70 µM (inactive) | 30 µM (inactive) | 74.1 µM (inactive) | 41 µM (inactive) | 14.2 µM (inactive) | 28.2 µM (inactive) | 31.6 µM (inactive) | 26.4 µM (inactive) | 25.5 µM (inactive) | 31.8 µM (inactive) | 36.6 µM (inactive) | 34.3 µM (inactive) |  | 41.7 µM (inactive) | 22.3 µM (inactive) | 25.4 µM (inactive) | 41.3 µM (inactive)
9 | N#CNc1nc(C(=O)Nc2ccc(Cl)cc2)cc(-c2ccccc2)n1 | > 100 µM (inactive) | > 100 µM (inactive) | > 100 µM (inactive) | > 100 µM (inactive) | > 100 µM (inactive) | > 100 µM (inactive) | > 100 µM (inactive) | > 100 µM (inactive) | > 100 µM (inactive) |  | > 100 µM (inactive) | > 100 µM (inactive) | > 100 µM (inactive) | > 100 µM (inactive) | > 100 µM (inactive) | > 100 µM (inactive) |  | > 100 µM (inactive) | > 100 µM (inactive) | > 100 µM (inactive)
10 | CCOc1cc2c(OCc3ccccc3)cc3c4cc(OC)c(OC)cc4c[n+](C)c3c2cc1OC | 1.15 µM (inactive) | 2.19 µM (inactive) | 1.57 µM (inactive) | 25.4 µM (inactive) | 2.06 µM (inactive) | 22.2 µM (inactive) |  | 2.4 µM (inactive) | 0.361 µM (active) | 10.3 µM (inactive) | 2.73 µM (inactive) | 1.22 µM (inactive) | 2.66 µM (inactive) | 19.4 µM (inactive) | 2.74 µM (inactive) | 1.56 µM (inactive) | 0.494 µM (active) | 2.03 µM (inactive) | 0.385 µM (active) | 0.492 µM (active)
11 | Fc1ccccc1-c1nn2c(C34CC5CC(CC(C5)C3)C4)nnc2s1 |  | > 100 µM (inactive) | > 100 µM (inactive) | > 100 µM (inactive) | > 100 µM (inactive) | > 100 µM (inactive) | > 100 µM (inactive) | > 100 µM (inactive) | > 100 µM (inactive) |  | > 100 µM (inactive) | > 100 µM (inactive) | > 100 µM (inactive) | > 100 µM (inactive) | > 100 µM (inactive) | > 100 µM (inactive) | > 100 µM (inactive) | > 100 µM (inactive) | > 100 µM (inactive) | > 100 µM (inactive)
12 | Cc1cc2c3c(c1)S(=O)(=O)c1cc(Cl)ccc1N3CCC2 | > 100 µM (inactive) | > 100 µM (inactive) | > 100 µM (inactive) | > 100 µM (inactive) |  | > 100 µM (inactive) | 84.3 µM (inactive) | 55.2 µM (inactive) | > 100 µM (inactive) | > 100 µM (inactive) |  | > 100 µM (inactive) | > 100 µM (inactive) | > 100 µM (inactive) | 82.2 µM (inactive) | > 100 µM (inactive) | > 100 µM (inactive) | > 100 µM (inactive) | > 100 µM (inactive) | > 100 µM (inactive)
13 | Cc1ccccc1C1CC(=O)CC(c2ccccc2C)C12C(=O)NC(=S)NC2=O (stereo unspecified) | 22.1 µM (inactive) |  | 9.64 µM (inactive) | 58.2 µM (inactive) | 12.6 µM (inactive) | 22.9 µM (inactive) |  | 19.6 µM (inactive) | 26.1 µM (inactive) | 39.4 µM (inactive) | 35.2 µM (inactive) | 13.4 µM (inactive) | 22.3 µM (inactive) | 18.4 µM (inactive) | 34.9 µM (inactive) | 20.5 µM (inactive) | 25 µM (inactive) | 24.3 µM (inactive) | 43.4 µM (inactive) | 32.7 µM (inactive)
14 | Cc1ccc(NC(=O)CC/C(CC(=O)c2ccc(F)cc2)=N\NC(=O)C(=O)NN)cc1C | > 100 µM (inactive) | > 100 µM (inactive) | > 100 µM (inactive) | > 100 µM (inactive) |  | > 100 µM (inactive) | > 100 µM (inactive) | > 100 µM (inactive) | > 100 µM (inactive) | > 100 µM (inactive) | > 100 µM (inactive) | > 100 µM (inactive) | > 100 µM (inactive) | > 100 µM (inactive) | > 100 µM (inactive) | > 100 µM (inactive) | > 100 µM (inactive) | > 100 µM (inactive) | > 100 µM (inactive) | > 100 µM (inactive)
